#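 Each compound was tested at five concentrations against cells in 96-well plates for 48 hours. At the GI50, growth is halved.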 Active and inactive are the calls of the source. No stated cut-off is given here; in the data, active = GI50 up to about 1.1 µM and inactive = higher.
# How the values were obtained:
# Assay in all cases: NCI anticancer screen, dose series, 48 h
# [1] = tested on: M14
# [2] = tested on: SNB-75
# [3] = tested on: SNB-19
# [4] = tested on: U-251
# [5] = tested on: SF-295
# [6] = tested on: MOLT-4
# [7] = tested on: SK-MEL-2
# [8] = tested on: SF-539
# [9] = tested on: 786-0
# [10] = tested on: LOX IMVI
# [11] = tested on: SW-620
# [12] = tested on: HCC 2998
# [13] = tested on: DU-145
# [14] = tested on: OVCAR-3
# [15] = tested on: MDA-MB-231
# [16] = tested on: OVCAR-8
# [17] = tested on: ACHN
# [18] = tested on: IGROV-1
# [19] = tested on: K562
# [20] = tested on: MCF7
SMILES,GI50 [1],GI50 [2],GI50 [3],GI50 [4],GI50 [5],GI50 [6],GI50 [7],GI50 [8],GI50 [9],GI50 [10],GI50 [11],GI50 [12],GI50 [13],GI50 [14],GI50 [15],GI50 [16],GI50 [17],GI50 [18],GI50 [19],GI50 [20]
C=C(CCC(C)C1CCC2C3=C(C(=O)CC21C)C1(C)CCC(=O)[C@@H](C)C1CC3=O)C(C)C(=O)O (stereo not given in full),> 100 µM (inactive),42.4 µM (inactive),> 100 µM (inactive),56.5 µM (inactive),53.2 µM (inactive),40.2 µM (inactive),> 100 µM (inactive),> 100 µM (inactive),18.3 µM (inactive),17.4 µM (inactive),68.2 µM (inactive),98.2 µM (inactive),> 100 µM (inactive),60.1 µM (inactive),39.3 µM (inactive),61 µM (inactive),29.9 µM (inactive),42.6 µM (inactive),18.6 µM (inactive),> 100 µM (inactive)
CC(C)NC(=O)OCc1c(COC(=O)NC(C)C)c(-c2ccc[n+](COC(=O)C(C)C)c2)n2c1CCC2,61.5 µM (inactive),52.1 µM (inactive),> 100 µM (inactive),> 75.5 µM (inactive),68.9 µM (inactive),13.6 µM (inactive),> 83.4 µM (inactive),31.8 µM (inactive),34.6 µM (inactive),37.7 µM (inactive),55.3 µM (inactive),> 100 µM (inactive),65.8 µM (inactive),> 67.8 µM (inactive),> 100 µM (inactive),> 72.8 µM (inactive),29.1 µM (inactive),> 67.6 µM (inactive),56.6 µM (inactive),55.6 µM (inactive)
CC(=O)C1=C(C)N2C(=NC3=C(CCc4ccccc43)C2c2ccc(Cl)cc2)S1 (stereo not given),> 40.4 µM (inactive),> 32.5 µM (inactive),> 100 µM (inactive),> 67.5 µM (inactive),> 100 µM (inactive),3.8 µM (inactive),> 45 µM (inactive),> 92.9 µM (inactive),> 52.4 µM (inactive),> 81.1 µM (inactive),> 33.3 µM (inactive),5.69 µM (inactive),> 100 µM (inactive),> 38.7 µM (inactive),> 100 µM (inactive),> 100 µM (inactive),> 100 µM (inactive),12.3 µM (inactive),2.05 µM (inactive),20.5 µM (inactive)
COc1cccc2c1cc([N+](=O)[O-])c1c(C(=O)O)cc3c(c12)OCO3 [ARISTOLOCHIC ACID],43.9 µM (inactive),30.9 µM (inactive),37.5 µM (inactive),36.9 µM (inactive),32.4 µM (inactive),26.7 µM (inactive),57.8 µM (inactive),24.9 µM (inactive),37.2 µM (inactive),35.5 µM (inactive),32 µM (inactive),2.8 µM (inactive),30.1 µM (inactive),33.9 µM (inactive),39.1 µM (inactive),28.7 µM (inactive),41.6 µM (inactive),29.4 µM (inactive),33.9 µM (inactive),49.4 µM (inactive)
COC(=O)C1=C(C)NC(C)=C(C(=O)OCCCN2CCC(c3ccccc3)(c3ccccc3)CC2)[C@H]1c1cccc([N+](=O)[O-])c1 [NIGULDIPINE],1.69 µM (inactive),1.37 µM (inactive),1.7 µM (inactive),1.8 µM (inactive),1.73 µM (inactive),1.95 µM (inactive),2.41 µM (inactive),1.8 µM (inactive),1.61 µM (inactive),1.62 µM (inactive),1.92 µM (inactive),2.24 µM (inactive),1.86 µM (inactive),1.46 µM (inactive),1.3 µM (inactive),1.95 µM (inactive),1.66 µM (inactive),1.8 µM (inactive),0.946 µM (active),2.07 µM (inactive)
